In brackets after ≈: the same amount, converted by molar mass.
Experiments:
Vitamin D3 receptor [1] = target: T1, Vitamin D3 receptor (Homo sapiens, UniProt P11473); assay: Antagonist activity at CMV-fused VDR (unknown origin) expressed in HEK293T cells assessed as reduction in 24-hydroxylase promoter mediated transcriptional activity by luciferase reporter gene assay; format: cell-based
T1 sequence (P11473 whole entry): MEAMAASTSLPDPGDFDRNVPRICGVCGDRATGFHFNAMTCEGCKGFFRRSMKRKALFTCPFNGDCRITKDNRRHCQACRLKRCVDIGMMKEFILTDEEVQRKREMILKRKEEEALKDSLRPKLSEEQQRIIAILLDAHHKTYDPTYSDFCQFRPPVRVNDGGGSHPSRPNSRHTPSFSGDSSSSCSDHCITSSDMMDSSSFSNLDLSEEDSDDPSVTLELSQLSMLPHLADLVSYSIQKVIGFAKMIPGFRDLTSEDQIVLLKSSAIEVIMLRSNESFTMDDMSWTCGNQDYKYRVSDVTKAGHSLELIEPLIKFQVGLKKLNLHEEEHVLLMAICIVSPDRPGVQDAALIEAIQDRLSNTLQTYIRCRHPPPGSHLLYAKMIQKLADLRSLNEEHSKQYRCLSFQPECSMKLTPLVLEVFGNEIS

[2] = target: T2, Peroxisome proliferator-activated receptor delta (Homo sapiens, UniProt Q03181); assay: Transactivation of CMV-fused PPARdelta-LBD-GAL4-DBD (unknown origin) expressed in HEK293T cells by luciferase reporter gene assay; format: cell-based
T2 sequence (Q03181 whole entry): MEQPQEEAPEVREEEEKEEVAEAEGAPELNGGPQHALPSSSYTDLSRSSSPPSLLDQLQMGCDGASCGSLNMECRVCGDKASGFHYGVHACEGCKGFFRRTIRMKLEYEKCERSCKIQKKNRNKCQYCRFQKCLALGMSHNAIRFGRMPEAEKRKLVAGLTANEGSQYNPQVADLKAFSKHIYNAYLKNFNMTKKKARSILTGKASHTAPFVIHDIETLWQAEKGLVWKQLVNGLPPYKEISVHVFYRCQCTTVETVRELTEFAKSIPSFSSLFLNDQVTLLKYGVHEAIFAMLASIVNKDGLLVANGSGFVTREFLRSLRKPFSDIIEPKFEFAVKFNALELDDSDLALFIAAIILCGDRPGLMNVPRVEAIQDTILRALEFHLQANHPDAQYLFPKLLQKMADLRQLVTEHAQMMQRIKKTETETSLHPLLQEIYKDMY

Vitamin D3 receptor [3] = target: T1, Vitamin D3 receptor; assay: Antagonist activity at VP16-fused VDR-LBD (unknown origin) expressed in HEK293T cells assessed as inhibition of ligand-induced GAL4-fused SRC1 coactivator recruitment by two-hybrid luciferase reporter gene assay; format: cell-based
[4] = target: T3, Peroxisome proliferator-activated receptor delta (Homo sapiens) (UniProt Q03181); assay: Transactivation of CMV-fused PPARdelta-LBD-GAL4-DBD (unknown origin) expressed in HEK293T cells at 100 uM by luciferase reporter gene assay relative to GW0742; format: cell-based
T3 sequence (whole entry): T2 sequence (Q03181 whole entry)

Vitamin D3 receptor [5] = target: T1, Vitamin D3 receptor; assay: Agonist activity at VDR-LBD (unknown origin) assessed as recruitment of alexa fluor 647-labeled SRC2-3 after 30 mins by fluorescence polarization assay
Vitamin D3 receptor [6] = target: T1, Vitamin D3 receptor; assay: Antagonist activity at VDR-LBD (unknown origin) assessed as inhibition of LG190178-induced recruitment of alexa fluor 647-labeled SRC2-3 after 30 mins by fluorescence polarization assay
HEK-293T = assay: Cytotoxicity against HEK293T cells assessed as decrease in cell viability at 100 uM after 18 hrs by Cell Titer-Glo based luminescence assay relative to control; details: human
[7] = Aqueous solubility of the compound in DMSO at 500 uM by filter based assay; format: physicochemical

SMILES | IC50 (Vitamin D3 receptor [1]) | EC50 ([2]; read-out: EC50) [µM] | IC50 (Vitamin D3 receptor [3]) [µM] | Activity [4] [%] | EC50 (Vitamin D3 receptor [5]) | IC50 (Vitamin D3 receptor [6]) | solubility kinetic at 500 µM [7] [µM] | IC50 (Vitamin D3 receptor [1]; read-out: IC50) [µM] | EC50 [2] | Activity (HEK-293T)
COc1ccccc1-c1nc(C)c(COc2ccc(CC(=O)O)cc2)o1 | Not Active | 11 | > 80 | 48 | Not Active | Not Active | 436 (≈ 154 µg/mL) | – | – | Non-Toxic
COC(=O)c1ccccc1OCc1oc(-c2ccccc2OC)nc1C | – | – | 20.2 | – | Not Active | Not Active | 185 (≈ 65.5 µg/mL) | 3.25 | Not Active | 54.1%
COc1ccccc1-c1nc(C)c(COc2ccccc2C(=O)O)o1 | Not Active | – | > 80 | – | Not Active | Not Active | 402 (≈ 136 µg/mL) | – | Not Active | 4.1%
COC(=O)CCc1ccc(OCc2oc(-c3ccccc3OC)nc2C)cc1 | – | – | 13.6 | – | Not Active | Not Active | 62.6 (≈ 23.9 µg/mL) | 10.1 | Not Active | 79.9%
COC(=O)c1ccc(OCc2oc(-c3ccccc3OC)nc2C)cc1 | – | – | 17.9 | – | Not Active | Not Active | 62.6 (≈ 22.1 µg/mL) | 4.85 | Not Active | 81.5%
COc1ccccc1-c1nc(C)c(COc2cccc(C(=O)O)c2)o1 | Not Active | 0.88 | > 100 | 22 | Not Active | Not Active | 423 (≈ 144 µg/mL) | – | – | Non-Toxic
COc1ccccc1-c1nc(C)c(COc2ccc(CCC(=O)O)cc2)o1 | – | 4.6 | > 100 | 30 | Not Active | Not Active | 400 (≈ 147 µg/mL) | > 80 | – | 2.1%
COC(=O)c1ccccc1OCc1oc(-c2cccc(OC)c2)nc1C | – | – | 15.4 | – | Not Active | Not Active | 52.8 (≈ 18.7 µg/mL) | 6.75 | Not Active | 94.6%

Now from value to compound, other results behind:

IC50 (Vitamin D3 receptor [1]) | EC50 ([2]; read-out: EC50) [µM] | IC50 (Vitamin D3 receptor [3]) [µM] | Activity [4] [%] | EC50 (Vitamin D3 receptor [5]) | IC50 (Vitamin D3 receptor [6]) | solubility kinetic at 500 µM [7] [µM] | IC50 (Vitamin D3 receptor [1]; read-out: IC50) [µM] | EC50 [2] | SMILES | Activity (HEK-293T)
– | – | 33.1 | – | Not Active | Not Active | 498 (≈ 169 µg/mL) | 33.2 | Not Active | COc1cccc(-c2nc(C)c(COc3cccc(C(=O)O)c3)o2)c1 | 23.9%
Not Active | 8.7 | > 80 | 16 | Not Active | Not Active | 460 (≈ 156 µg/mL) | – | – | COc1ccccc1-c1nc(C)c(COc2ccc(C(=O)O)cc2)o1 | Non-Toxic
– | 1.4 | 26.7 | 13.7 | Not Active | Not Active | 234 (≈ 86.1 µg/mL) | 3.35 | – | COc1cccc(-c2nc(C)c(COc3ccc(CCC(=O)O)cc3)o2)c1 | 41.2%
– | 1.09 | 6.7 | 7.7 | Not Active | Not Active | 38.2 (≈ 14.6 µg/mL) | 2.88 | – | COC(=O)CCc1ccc(OCc2oc(-c3cccc(OC)c3)nc2C)cc1 | 67.6%
– | 1.8 | 27.7 | 8.5 | Not Active | Not Active | 410 (≈ 145 µg/mL) | 3.6 | – | COc1cccc(-c2nc(C)c(COc3ccc(CC(=O)O)cc3)o2)c1 | 34.5%
– | – | > 33 | – | Not Active | Not Active | 264 (≈ 89.6 µg/mL) | 40.4 | Not Active | COc1cccc(-c2nc(C)c(COc3ccccc3C(=O)O)o2)c1 | 37.3%
– | – | 17.1 | – | Not Active | Not Active | 24.1 (≈ 8.52 µg/mL) | 5.56 | Not Active | COC(=O)c1cccc(OCc2oc(-c3cccc(OC)c3)nc2C)c1 | 59.3%
– | 2.6 | > 80 | 2.1 | Not Active | Not Active | 457 (≈ 155 µg/mL) | > 100 | – | COc1cccc(-c2nc(C)c(COc3ccc(C(=O)O)cc3)o2)c1 | 27.2%

— ChEMBL document CHEMBL4184110 (Bioorg Med Chem Lett, 2018)
